Marks after values point to notes of the source that are not given here.
Tests used:
[1] = tested on: ovariectomized (OVX) rat model; test: In vivo ovariectomized (OVX) rat study - histomorphology measurement; details: OVX rats, 35 days, positive control 0.5 mg/day; vs placebo group
Protocol: (§1) Two different formulas were tested in an in vivo study involving female, […] rats, aged approximately 12-14 weeks, with approximate body weights between 200-250 grams. Formula 2 included varying dosages of pomegranate extract and grape seed extract and a fixed dosage of ipriflavone as reported in Table 18. Three dosages were tested for each formula. The study utilized 8 groups of rats, with 15 rats in each group and lasted approximately 35 days.
Table 18 below indicates the formula given to each of the 8 test groups. […]
(§2) The effectiveness of the formulas on antiresorption was assessed by outcome measurements that included DEXA scan (to determine bone mineral density), biomechanical measurement (to gather bone strength and functional information), micro-CT measurement (to assess virtual bone quality and functional information), and histomorphology measurement (to assess bone quality and functional information). […] These measurements were determined after 35 days of treatment.
Histomorphology measurement was also used as a tool to determine the efficacy of formulas 1 and 2 where trabecular bone volume from each group was quantified. […]

[2] = tested on: ovariectomized (OVX) rat model; test: In vivo ovariectomized (OVX) rat study - micro-CT measurement; details: OVX rats, 35 days, positive control 0.5 mg/day; vs placebo group
Protocol: Two different formulas were tested in an in vivo study involving female, intact rats, aged approximately 12-14 weeks, with approximate body weights between 200-250 grams. Formula 2 included varying dosages of pomegranate extract and grape seed extract and a fixed dosage of ipriflavone as reported in Table 18. Three dosages were tested for each formula. The study utilized 8 groups of rats, with 15 rats in each group and lasted approximately 35 days.
To introduce rapid bone resorption caused by estrogen withdrawal, the ovariectomized (OVX) rat model was used in this study. […] It was important to evaluate the effect of bone resorption caused by the ovariectomy procedure so a Sham control (n=6), a group of female rats without undergoing the ovariectomy procedure, was also included in the study.
This study employed a randomized placebo controlled dose response design. A total of 120 ovariectomized rats (n=15 per group) aged ˜12-14 weeks, with body weights of approximately 200-250 grams were randomly assigned to groups for 35 days. Animals were fed at 15 grams/day, which included either a placebo diet or one of the formulas listed above, for a period of 35 days from the beginning of the experiment. […]
The effectiveness of the formulas on antiresorption was assessed by outcome measurements that included DEXA scan (to determine bone mineral density), biomechanical measurement (to gather bone strength and functional information), micro-CT measurement (to assess virtual bone quality and functional information), and histomorphology measurement (to assess bone quality and functional information). […] These measurements were determined after 35 days of treatment. […]

[3] = tested on: calvaria (skull bones) from 4 day old pups; test: Calvarial Assay to Measure Inhibition of Bone Resorption (45Ca release); assay type: cell-based, CD-1 mice; details: positive control
Protocol: In order to label cells of newborn mice in utero, pregnant CD-1 female mice (at timed day 15) were injected with ^45Ca (25 uCi/mouse). […] The bones were incubated at 37° C. in a 5% CO2 humidified incubator for a period of 24 hours following which they were transferred to wells containing 1 ml media with factors added (IL-1, PTH and or compounds.) The treated bones were incubated under the above conditions for a further 72 hours. […] The results were expressed as % ^45Ca release and can be further reported as T/C ratios. For some factors and compounds, modification of this procedure can be used. As most of the osteoclasts are formed in the calvaria following the preincubation period, the factors that affect osteoclast formation may have a greater effect during the preincubation period. Thus, for a number of the compounds, they were included in the preincubation media.

[4] = tested on: ovariectomized (OVX) rat model; test: In vivo ovariectomized (OVX) rat study - biomechanical measurements; details: OVX rats, 35 days, positive control 0.5 mg/day; vs placebo group
Protocol: as §1
Table 18 below indicates the formula given to each of the 8 test groups. The dosages in Table 18 are based on the recommended human dosages and were converted to the appropriate corresponding rat dose using the FDA conversion formula: Human equivalent dose (HED, mg/kg)=rat dose in mg/kg×(rat weight in kg/human weight in kg)^0.33 HED=rat NOAEL×(W-rat/W-human)^(1-b), b=0.67. […]
as §2, with “treatment. […]” for “treatment.”

NCCCC(O)(P(=O)(O)O)P(=O)(O)O [Alendronate]
% Bone Volume [1]: 214.1%^a | % Bone Volume/ Total Volume [2]: 632%^a | Trabecular Number (N/6 mm^3) [2]: 313%^a | Trabecular Separation [2]: −88%^a | Inhibition of Bone Resorption/Release of Calcium By Combinations of Extracts, % Release ([3]; IL-1 + 0.1 μM): 28.50 ± 1.19 % Release | Inhibition of Bone Resorption/Release of Calcium By Combinations of Extracts, % Release ([3]; IL-1 + 1 μM): 17.00 ± 1.15^a % Release | Inhibition of Bone Resorption/Release of Calcium By Combinations of Extracts, % Release ([3]; IL-1 + 10 μM): 14.07 ± 1.05^a % Release | Inhibition of Bone Resorption/Release of Calcium By Combinations of Extracts, % Release ([3]; IL-1 + 100 μM): 12.00 ± 0.17^a % Release | Bone Stiffness [4]: 0.2% | Maximum Force Required to Fracture Bones [4]: −0.4%
